Structures are written as SMILES.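 Dose response: 5 concentrations. Exposure: 48 h. Format: 96-well plates. Endpoint: linear interpolation; highest concentration if not reached. Definition used: TGI = concentration required for complete inhibition of growth.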

Drawing on PubChem BioAssay (NCI), this text covers TGI for 19 compounds.

Among the test systems are A549 NSCLC; SF-295 CNS; NCI-H226 lung; SN12C renal; SK-MEL-2 melanoma; UACC-257 melanoma; LOX IMVI melanoma; U251 CNS; K-562 leukemia; PC-3 prostate; DU-145 prostate; TK-10 renal; SNB-75 CNS; HS 578T breast.
Holding throughout (test): growth of human tumour cells (NCI), 48 h

On to `O=S1(=O)NNC(=NCc2ccc(Cl)c(Cl)c2)c2ccccc21`, for which the TGI with A549 NSCLC, with SF-295 CNS, in the assay on NCI-H226 lung, with SN12C renal, in the assay on SK-MEL-2 melanoma and in the assay on UACC-257 melanoma was more than 100 µM in each case. In addition, the TGI in the assay with LOX IMVI melanoma, in the assay with U251 CNS and in the assay with K-562 leukemia was more than 100 µM throughout.
For the compound `CC1(C)OCC2(CO1)CSCCCSCC1(COC(C)(C)OC1)CSCCCSC2`, the TGI in the assay with A549 NSCLC, in the assay on SF-295 CNS, with SN12C renal, in the assay on PC-3 prostate, in the assay with UACC-257 melanoma and in the assay on LOX IMVI melanoma was more than 100 µM in each case. In addition, the TGI with U251 CNS, in the assay on K-562 leukemia, in the assay on DU-145 prostate, in the assay with TK-10 renal and in the assay on SNB-75 CNS was more than 100 µM throughout.
On to `Cc1cccc2[nH]c3cc(O)cc(O)c3c(=O)c12`, for which the TGI with A549 NSCLC, with SF-295 CNS, in the assay on NCI-H226 lung, with SN12C renal, in the assay on PC-3 prostate and in the assay with SK-MEL-2 melanoma was more than 10 µM in each case. Besides, the TGI in the assay on UACC-257 melanoma, with LOX IMVI melanoma, in the assay on U251 CNS, in the assay on K-562 leukemia, in the assay on DU-145 prostate and with TK-10 renal was more than 10 µM in each case. Besides, the TGI with HS 578T breast and with SNB-75 CNS was more than 10 µM throughout.
On to `O=C(C/C(=N\NC(=O)C[n+]1ccccc1)C(=O)Nc1nc2ccc([N+](=O)[O-])cc2s1)CC(c1ccccc1)c1c(O)c2ccccc2oc1=O` (centres undefined), for which the TGI in the assay with A549 NSCLC, in the assay with SF-295 CNS, in the assay with SN12C renal, in the assay with SK-MEL-2 melanoma, in the assay on UACC-257 melanoma and in the assay on K-562 leukemia was more than 100 µM throughout. In addition, in the assay on TK-10 renal, the TGI is more than 100 µM.
Turning to `CC12CCC([C@H](N3CCOCC3)/C1=N\OCCN1CCCC1)C2(C)C` (some centres undefined), the TGI with A549 NSCLC, in the assay on SF-295 CNS, with NCI-H226 lung, in the assay on SN12C renal, in the assay on SK-MEL-2 melanoma and in the assay on UACC-257 melanoma was more than 100 µM each time. For the same compound, the TGI in the assay on LOX IMVI melanoma, in the assay with U251 CNS, with K-562 leukemia, in the assay with TK-10 renal and with SNB-75 CNS was more than 100 µM in each case.
For `COc1cccc(/C(CC(O)(C(F)(F)F)C(F)(F)F)=N\N(C)C)c1`, the TGI in the assay on A549 NSCLC, in the assay with SF-295 CNS, in the assay on NCI-H226 lung, in the assay on SN12C renal, in the assay on PC-3 prostate and in the assay on SK-MEL-2 melanoma was more than 100 µM each time. In addition, the TGI with LOX IMVI melanoma, in the assay on U251 CNS, in the assay with K-562 leukemia, in the assay on DU-145 prostate, in the assay with TK-10 renal and in the assay with HS 578T breast was more than 100 µM each time. For the same compound, in the assay with SNB-75 CNS, the TGI was more than 100 µM.
Regarding `CC(NC(=O)C(OC(=O)C(C)NC(=O)OC(C)(C)C)C(C)C)C(=O)OC(C(=O)O)C(C)C` (centres undefined), the TGI in the assay on A549 NSCLC, in the assay with SF-295 CNS, in the assay on NCI-H226 lung, in the assay on SN12C renal, with PC-3 prostate and in the assay with SK-MEL-2 melanoma was more than 100 µM each time. Besides, the TGI with UACC-257 melanoma, in the assay with U251 CNS, in the assay on K-562 leukemia, in the assay on DU-145 prostate, with TK-10 renal and in the assay on HS 578T breast was more than 100 µM each time. For the same compound, the TGI in the assay with SNB-75 CNS is more than 100 µM.
For the compound `COc1ccc(-c2cnoc2-c2ccc(OC)c(OC)c2)cc1OC`, the TGI in the assay with A549 NSCLC was more than 44.8 µM; with SF-295 CNS, 4.27 µM; in the assay with NCI-H226 lung it was more than 24 µM; with SN12C renal it was 33.7 µM; with SK-MEL-2 melanoma it was 42.7 µM; in the assay with UACC-257 melanoma, more than 100 µM. Moreover, the TGI is 5.22 µM with LOX IMVI melanoma; 11.4 µM in the assay on U251 CNS; more than 100 µM in the assay with K-562 leukemia; 43.2 µM with TK-10 renal; 6.53 µM with SNB-75 CNS.
On to `C=C[C@@]1(C)CCC2(O)C(CCC3C2(C)CCC[C@@]3(C)COC(=O)CC(=O)OC)C1` (some centres undefined), for which the TGI was 35.9 µM with A549 NSCLC; 55.9 µM in the assay on NCI-H226 lung; 38.2 µM in the assay with SN12C renal; 36.5 µM in the assay on UACC-257 melanoma; 31.1 µM in the assay on LOX IMVI melanoma; 32.2 µM with U251 CNS. For the same compound, the TGI in the assay with K-562 leukemia was found to be 63.5 µM; in the assay on TK-10 renal, 73.3 µM; in the assay on SNB-75 CNS, 48.4 µM.
For the compound `O=C(O)c1c[nH]c2c(=O)[nH]cnc12`, the TGI in the assay on A549 NSCLC, in the assay with SF-295 CNS, with SN12C renal, with SK-MEL-2 melanoma, with UACC-257 melanoma and in the assay with LOX IMVI melanoma was more than 100 µM each time. The TGI in the assay with K-562 leukemia, in the assay with TK-10 renal and in the assay with SNB-75 CNS was more than 100 µM each time.
As to `CNC(C)Cc1ccccc1O` (centres undefined), the TGI in the assay with A549 NSCLC, in the assay with SF-295 CNS, with NCI-H226 lung, in the assay with SN12C renal, in the assay with SK-MEL-2 melanoma and with UACC-257 melanoma was more than 100 µM each time. Further, the TGI in the assay on LOX IMVI melanoma, with U251 CNS, in the assay with K-562 leukemia, with TK-10 renal and in the assay with SNB-75 CNS was more than 100 µM throughout.
Turning to `COc1ccc(-c2cc(-c3ccc(Cl)cc3)n(C3OC(CO)C(O)C(O)C3O)c(=S)c2C#N)cc1` (centres undefined), the TGI in the assay on SF-295 CNS is more than 100 µM; in the assay with SN12C renal, more than 100 µM; with PC-3 prostate, more than 100 µM; with SK-MEL-2 melanoma, 97.9 µM; with UACC-257 melanoma, more than 100 µM; in the assay on LOX IMVI melanoma, more than 100 µM. Also, the TGI in the assay on U251 CNS was more than 100 µM; in the assay with K-562 leukemia, more than 100 µM; in the assay on DU-145 prostate, more than 100 µM; with TK-10 renal it was 82.8 µM; in the assay with HS 578T breast, more than 100 µM; in the assay with SNB-75 CNS it was more than 100 µM.
For `O=C1CSC(/C(=C/c2ccccc2)c2nc3ccccc3[nH]2)=N1`, the TGI in the assay on A549 NSCLC was more than 100 µM; in the assay on SF-295 CNS, more than 100 µM; with NCI-H226 lung, 38.4 µM; in the assay with SN12C renal, more than 100 µM; in the assay with SK-MEL-2 melanoma it was more than 100 µM; with UACC-257 melanoma, more than 100 µM. In addition, the TGI was more than 100 µM in the assay on LOX IMVI melanoma; 74.4 µM with U251 CNS; more than 100 µM in the assay with K-562 leukemia; more than 100 µM in the assay with TK-10 renal; 50.7 µM with SNB-75 CNS.
In the case of `C=CCC1C(=O)C(C(=O)OC)N2CCc3c([nH]c4ccccc34)C12` (centres undefined), the TGI with A549 NSCLC, in the assay with SF-295 CNS, with SN12C renal, in the assay on SK-MEL-2 melanoma, in the assay with U251 CNS and with K-562 leukemia was more than 100 µM in each case. Besides, in the assay on TK-10 renal, the TGI is more than 100 µM.
With `COC(=O)C1CC(=O)CCC1c1ccccc1` (centres undefined), the TGI in the assay with A549 NSCLC, in the assay with SF-295 CNS, in the assay with NCI-H226 lung, with SN12C renal, in the assay with SK-MEL-2 melanoma and with UACC-257 melanoma was more than 100 µM throughout. Also, the TGI in the assay on LOX IMVI melanoma, in the assay with U251 CNS, with K-562 leukemia, in the assay with TK-10 renal and with SNB-75 CNS was more than 100 µM throughout.
For `C#CCSc1nc(N)c2ncn(C3OC(CO)C(O)C3O)c2n1` (centres undefined), the TGI with A549 NSCLC, in the assay with SF-295 CNS, with SN12C renal, in the assay with UACC-257 melanoma, with LOX IMVI melanoma and in the assay on U251 CNS was more than 100 µM each time. The TGI in the assay with K-562 leukemia and with TK-10 renal was more than 100 µM each time.
For the compound `O=C(CC(=O)C(=O)Nc1ccccc1)CC(c1ccccc1)c1c(O)c2ccccc2oc1=O` (centres undefined), the TGI with A549 NSCLC, in the assay on SF-295 CNS, in the assay on NCI-H226 lung, in the assay with SK-MEL-2 melanoma, in the assay on LOX IMVI melanoma and in the assay with K-562 leukemia was more than 100 µM each time. Also, the TGI in the assay on TK-10 renal and in the assay on SNB-75 CNS was more than 100 µM throughout.
As to `CCCCCCCC(=O)OC[C@@H](C[As](=O)(O)O)OC(=O)CCCCCCC`, the TGI was 19.3 µM in the assay with A549 NSCLC; 28.9 µM in the assay with SF-295 CNS; 18.6 µM with NCI-H226 lung; 23.3 µM in the assay on SN12C renal; 35.6 µM in the assay on UACC-257 melanoma; 19.9 µM in the assay with U251 CNS. The TGI in the assay with K-562 leukemia was 51.4 µM; with SNB-75 CNS, 29.5 µM.
As for `CC1=CCC2(C#N)CCC1C2O` (centres undefined), the TGI in the assay with A549 NSCLC, with SF-295 CNS, in the assay on NCI-H226 lung, in the assay on SN12C renal, in the assay on SK-MEL-2 melanoma and in the assay on UACC-257 melanoma was more than 100 µM throughout. The TGI with LOX IMVI melanoma, in the assay on U251 CNS, in the assay with K-562 leukemia, in the assay on TK-10 renal and in the assay with SNB-75 CNS was more than 100 µM in each case.
